Patent publication US20240342121A1, “THE USE OF BETA-HYDROXYBUTYRATES FOR THE TREATMENT OR PREVENTION OF ANEURYSMS AND DISSECTIONS” (priority 2021, published 2024)
Entries after “also recorded” stand apart in the source; their conditions may differ.

Columns and labels:
[1] = test system: angiotensin II (AII)-induced AAA; experiment: AII-induced AAA mouse model, post-treatment; type: in vivo
Description: To determine if senescence is a major cause of aneurysm development, the association between senescence and aneurysms using the angiotensin II (AII)-induced AAA model was investigated. Mice were infused AII for four weeks using osmotic mini-pump implantation into Apoe^−/− transgenic mouse.
To investigate the therapeutic potential of ketotherapy for abdominal aortic aneurysm (AAA), Ketogenic-diet (KD) and Ketone-ester (KE) were provided to angiotensin II (AII)-induced mouse model of AAA (FIG. 6). […] After completing AII infusion, the mice were post-treated with KD and KE for two to four weeks.
To investigate the time-dependent reduction of aorta diameter, the inner diameter of the aorta using ultrasound analysis was measured.

senescent SMCs [2] = experiment: Cellular viability (cytotoxicity) assay of senescent and normal SMCs; type: cell-based; conditions: premature senescence by H2O2, Arsenite or Nutlin 3a, FIG. 2A
Experimental: (§1) FIGS. 2A-2L. (a) Cytotoxicity assay of normal smooth muscle cells (NS) and senescent smooth muscle cells (SMCs). Replicative senescent SMCs (RS) and premature senescent SMCs, stimulated by H2O2 (HP), arsenic (Ars), and Nutlin 3a (Nut) treatment were treated with βHB, s-βHB, and ABT-737. (b) Flow cytometry analysis of apoptosis by βHB or s-βHB in radiation (10 Gy)-induced senescent SMC. (c) Quantitation of apoptotic cell and senescent cell after treating βHB and s-βHB in radiation-induced senescent SMC. (d) Representative aorta image of AII-infused mice with post-treatment of ABT-737, βHB and s-βHB. (e) External diameter of abdominal aorta infused with AII and post-treated with ABT-737 βHB and s-βHB. (f) SA-βGal activity assay of the whole aorta infused with AII, and post-treated with ABT-737, KD, or KE. (g) Quantitation of senescent area on aorta of AII-infused mice, and post-treated with KD, KE and ABT-737. (h) TUNEL assay on the abdominal aorta of AII infused mice, and treated with ABT-737, βHB, or s-βHB. SM-α Actin (SMA) and DAPI are co-stained after TUNEL reaction. […]
The clearance of senescent cells that accumulate during the aneurysm development is required to reduce the volume of aneurysm plaque. Thus, the senotherapeutic potential of βHB to reverse AAA progression was evaluated. […]

senescent SMCs [3] = experiment: Flow cytometry (FACS) apoptosis analysis, PI and Annexin V; type: cell-based; conditions: FIGS. 2B, 2C
Experimental: as §1, with “reaction. (i) Caspase 3 activity assay on normal SMCs (NC) treated with βHB, or s-βHB, and ABT-737 comparing to normal cells pretreated with Nutlin-3a. (j) Caspase 3 activity assay on senescent SMCs (SNC) treated with βHB, or s-βHB, and ABT-737 compared to senescent cells pretreated with pifithrin-α.” for “reaction.”

[4] = in vivo
Description: We established an in vivo tolerance test of βHB and s-βHB (FIGS. 9A and 9B). […] The reduction of the inner diameter of the aortic wall is also dramatic in the treatment of s-βHB in FIG. 9F (Two-way ANOVA, ^###P<0.005, n=10).

CaCl2-induced AAA [5] = experiment: CaCl2-induced AAA animal model, post-treatment; type: in vivo, mouse
Experimental: FIGS. 5A-5J. (a) Representative image of aorta which developed CaCl2)-induced AAA, and post-treated with KD, KE, βHB, s-βHB, or ABT-737. KD is provided to mice for 4 weeks, KE is administrated with drinking water, βHB, s-βHB or ABT-737 are IP injected for 2 weeks with 48h intervals. (b) Incidence of AAA by CaCl2) treatment and proportion of mice recovered from the AAA after post-treatment of KD, KE, βHB and s-βHB for 2 weeks. (c) Time-dependent observation of inner diameter after CaCl2) treatment and post-treatment of KD or KE (28˜56 days after surgery). (d) Comparison of ultrasound images of CaCl2)-induced AAA to the identical aorta post-treated with βHB for 2 weeks. (e) H&E staining of aorta from the mice developed with CaCl2)-induced AAA, and post-treated with KD, KE, βHB, and s-βHB. (f) SA β-Gal activity assay on aorta which developed CaCl2)-induced AAA, and post-treated with KD, KE, βHB, s-βHB, or ABT-737. (g) Quantitation of senescent area on aorta developed with CaCl2)-induced AAA, and post-treated with KD, KE, βHB, s-βHB. (h) Verhoeff Van Gieson/EVG staining of abdominal aorta developed with CaCl2)-induced AAA, post-treated with KD, KE, βHB and s-βHB. (i) Average number of elastic fibers on abdominal aorta presented at FIG. 5H. (j) Measurement of Pulse Wave Velocity (PWV) on CaCl2)-infused mice with post-treatment of KD, KE, βHB, and s-βHB.
To confirm the possibility that the therapeutic effect of βHB on AAA is not only applied to AII-induced AAA, the CaCl2)-induced AAA animal model was also examined as well (FIG. 5A).
To further validate the therapeutic efficacy of s-βHB on aneurysms, we used a CaCl2-induced AAA animal model as well as an angiotensin II infusion model. […] Two-way ANOVA, s-βHB vs βHB, #P<0.01, n=10. Since the elimination of senescent SMCs is critical for the recovery of AAA, we investigated that s-βHB is also effective to remove senescent cells in CaCl2)-induced aneurysms. […] Student's T-test for s-βHB vs βHB, ^#P<0.05, n=8.

[6] = test system: Oct4 overexpressed senescent SMCs; experiment: Oct4 overexpressed senescent SMCs (SA β-Gal, Western blot); type: cell-based; conditions: Oct4 overexpression by CRISPR-dCas9-VP64, FIG. 14A
Description: FIGS. 14A-14B show (a) SA β-Gal activity on Oct4 overexpressed SMCs with or without βHB treatment (2 days). Irradiated SMCs were infected by Lentivirus containing Crispr-dCas9-VP64_Oct4 plasmid prior to treating βHB. The arrow indicates localized senescent cell mass. (b) Western blot analysis after lentivirus (Crispr-dCas9-VP64_Oct4) infection into senescent SMCs without βHB treatment for 1 day or 2 days.
We proposed that Oct4 upregulation in senescence forms senescent spheroid-like cell mass and asymmetric configuration of aneurysms. To validate our central hypothesis, we overexpressed Oct4 in senescent SMCs using the CRISPR-dCas9-VP64 system to determine the role of Oct4. […] Localized increase of senescence may be highly associated with asymmetric dilation of aneurysms. […] We supposed that βHB prevents or reverses Oct4-induced senescence of SMCs, consequently reducing the size of aneurysms. To investigate the role of βHB in aneurysms, we assess the possibility of cellular reprogramming in senescent SMCs in the condition of Oct4 overexpression. […] In particular, a moderate increase of FAP (Fibroblast Activation Protein) provides a potential for reprogramming resulting in transdifferentiation of SMCs to myofibroblast. Recovered SM22 expression in Oct4 overexpressed senescent SMCs supposed that βHB converts the Oct4 function in dedifferentiation into a reprogramming-related role. We considered an βHB-induced epigenetic alteration of senescent cells contributing to Oct4-dependent cellular reprogramming based on this unique observation.

[7] = test system: angiotensin II (AII)-induced AAA; experiment: AII-induced AAA mouse model, post-treatment; type: in vivo; conditions: injection every other day for two weeks, FIG. 2E
CaCl2-induced AAA [8] = experiment: CaCl2-induced AAA animal model, post-treatment; type: in vivo, mouse; conditions: n=10, FIG. 5C

**Q.** Which “TUNEL assay, apoptosis of senescent plaque in the aneurysm” value ([1]; FIG. 2H) does the source give for `C[C@H](O)CC(=O)O` [s-βHB, (S)-3-hydroxybutyrate] here?
**A.** induced targeted apoptosis of senescent plaque

**Q.** And the lesion area ([1]; FIG. 9G)?
**A.** relatively more effective than βHB

**Q.** And the “body weight and lipids levels” value ([1]; FIGS. 9H-9J)?
**A.** no significant alteration

**Q.** What about the “recovery rate of aneurysms” value ([1]; compared to βHB) of the same compound?
**A.** significant improvement in the recovery rate of aneurysms compared to the βHB treatment

**Q.** What about the “AAA rate after post-treating” value ([1]; incidence of AAA by angiotensin II infusion 67%, n=10, FIG. 9D) of the same compound?
**A.** 27%

**Q.** And the “reduction of the inner diameter of the aortic wall” value ([1]; n=10, FIG. 9F)?
**A.** dramatic

**Q.** What about the “number of senescent SMCs versus normal SMCs” value (senescent SMCs [2]) of the same compound?
**A.** selectively reduced the number of senescent SMCs and not normal SMCs; also recorded: significantly reduced

**Q.** What about the “apoptosis of senescent SMCs” value (senescent SMCs [3]) of the same compound?
**A.** more effectively than βHB

**Q.** And the half-life [4]?
**A.** 2 h

**Q.** What about the “recovery from CaCl2-induced AAA” value (CaCl2-induced AAA [5]; FIGS. 5A and 5B) of the same compound?
**A.** effectively reversed aneurysms

**Q.** What about the “senescent cells, SA β-gal assay” value (CaCl2-induced AAA [5]; FIGS. 5F and 5G) of the same compound?
**A.** significantly reduced senescent cells

**Q.** And the “localized senescence, SA β-Gal activity” value [6]?
**A.** significantly reverses or prevents the development of localized senescence

**Q.** What about the “external diameter of the abdominal aorta” value [7] of the same compound?
**A.** significantly reduced; also recorded: strongly reduced

**Q.** And the “time-dependent reduction of the external diameter of the aortic wall” value (CaCl2-induced AAA [8])?
**A.** more effective than βHB
